The values below are quoted from earlier work in article PMC6309200 (Journal of Controlled Release, 2018).

Where a SMILES comes first, the peptide text is derived from it.

The subject of this data set is PA-specific CD8+ T cells. To be noted: shown previously; ref [15].

Take `CC(=O)N[C@@H](CCC(N)=O)C(=O)N[C@@H](CCC(N)=O)C(=O)N[C@@H](CCCCN)C(=O)N[C@@H](Cc1ccccc1)C(=O)N[C@@H](CCC(N)=O)C(=O)N[C@@H](Cc1ccccc1)C(=O)N[C@@H](CCC(N)=O)C(=O)N[C@@H](Cc1ccccc1)C(=O)N[C@@H](CCC(=O)O)C(=O)N[C@@H](CCC(N)=O)C(=O)N[C@@H](CCC(N)=O)C(N)=O` [Q11] (Ac-QQKFQFQFEQQ-NH2): the “Immunogenicity without attached competent epitopes” value is on record as “non-immunogenic”.
